Earlier results in patent US5476933A, “Azepine synthesis via a diels-alder reaction” (priority 1994, dated 1995).

What was measured:
rodents = settings: literature; cited from earlier work
PCP receptor = settings: Wong et al. 1986; cited from earlier work

For `C[C@]12N[C@H](Cc3ccccc31)c1ccccc12` [MK-801], the “PCP-like behavioral effects, in words” value (rodents) is given as “adverse PCP-like behavioral side effects” and the Kd (PCP receptor) is given as roughly 3 nM.
